Measurements as given in patent US11827665B2, “Process for the manufacture of (2S,3S,4S,5R,6S)-3,4,5-trihydroxy-6-(((4AR,10AR)-7-hydroxy-1-propyl-1,2,3,4,4A,5,10,10A-octahydrobenzo[g]quinolin-6-yl)oxy)tetrahydro-2H-pyran-2-carboxylic acid” (H. Lundbeck A/S, priority 2019, dated 2023).

Assays:
[1] = man, oral dosing; cited from earlier work
[2] = test system: Parkinson's disease; conditions: PD patients, intravenous (IV); cited from earlier work
[3] = test system: rat locomotor activity; experiment: Rat locomotor activity (hyperactivity) assay, open field, with PK/PD; assay type: in vivo, male CD rats
Method: Animals were dosed at t=60 minutes after a 60-minutes habituation period in test chambers, and activity was monitored for 350 minutes thereafter.
In total, 206 male CD rats (Charles River, Germany) weighing 200-250 grams (165-190 grams upon arrival) were used in the study. Animals were housed at a standard temperature (22±1° C.) and in a light-controlled environment (lights on from 7 am to […]) with ad libitum access to food and water. The experiment described below was performed in accordance with the standard operating procedures of Charles River Discovery Research Services Finland Ltd. and in accordance with the national Animal Experiment Board of Finland (Eläinkoelautakunta, ELLA) authority on animal testing.
The test device is a square Plexiglass-arena (measuring 40×40×40 cm), in which the movement paths of the rats are recorded by an activity monitor (Med. Associates Inc.). Before the test period is initiated, rats are habituated to their test cage for 60 minutes. Upon completion of habituation, animals were treated with either compound or vehicle and placed back into the open field apparatus. The main test parameter measured is ambulatory distance (recorded in 5-minute segments). Overall time of measurement after receiving initial treatment was 360 minutes. Total follow up period in the study was 420 min, including 60 min of habituation.

[4] = test system: human hepatocytes; experiment: Incubation with human hepatocytes; assay type: in vitro ADME
Method: (§1) The cell concentration at incubation was 1×10^6 viable cells/mL. The incubations were performed in glass tubes at 37° C. with a total incubation volume of 3.5 mL and with duplicate incubations for each test item. The 3.5 mL of hepatocyte suspension was equilibrated for 10 minutes in a water bath set to 37° C. where after the incubations were initiated by adding 3.5 μL of a stock solution of the test item in DMSO (Dimethyl sulfoxide) and gently inverting the tubes. The final solvent concentration in the incubations was 0.1% DMSO. Samples of 600 μL were withdrawn from the incubations at the pre-determined time points of 0.25, 5, 15, 30 and 60 minutes after ensuring homogeneity of hepatocyte suspensions. The withdrawn volume was added to 1 mL Nunc cryotubes on wet ice containing 60 μL of ice-cold ascorbic acid (100 mg/mL) and 30 μL of ice cold 100 mM saccharic acid 1.4-lactone in 0.5 M citric acid. The tubes were mixed and 35 μL of a solution of ice cold 20% formic acid was added. The tubes were mixed thoroughly and stored at −80° C. awaiting analysis.

[5] = test system: Parkinson's Disease animal models; conditions: WO 2010/097092; cited from earlier work
[6] = test system: rat hepatocytes; experiment: Incubation with rat hepatocytes; assay type: in vitro ADME
Method: as §1

[7] = molecular target: T1, human 5-HT2B receptor (Homo sapiens, UniProt P41595); experiment: 5-HT2B agonist activity assay (IP1 production, HTRF); assay type: cell-based
T1 construct: host or cells: CHO
T1 sequence (P41595 whole entry): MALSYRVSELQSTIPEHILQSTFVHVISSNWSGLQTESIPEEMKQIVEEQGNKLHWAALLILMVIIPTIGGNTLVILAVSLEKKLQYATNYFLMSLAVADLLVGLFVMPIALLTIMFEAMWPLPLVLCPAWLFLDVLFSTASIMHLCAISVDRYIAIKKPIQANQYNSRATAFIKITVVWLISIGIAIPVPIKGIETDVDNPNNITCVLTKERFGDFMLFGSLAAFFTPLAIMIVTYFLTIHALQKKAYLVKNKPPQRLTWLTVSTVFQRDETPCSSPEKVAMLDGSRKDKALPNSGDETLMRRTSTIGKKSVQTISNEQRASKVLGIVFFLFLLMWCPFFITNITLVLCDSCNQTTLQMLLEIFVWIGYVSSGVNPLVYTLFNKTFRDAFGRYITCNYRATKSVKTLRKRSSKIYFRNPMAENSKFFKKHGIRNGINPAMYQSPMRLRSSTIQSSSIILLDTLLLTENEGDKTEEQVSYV
Method: Evaluation of the agonist activity of compounds (I), (Ia), (Ib), (Ic) and (Id) at the human 5-HT2B receptor was performed by Eurofins/Cerep (France) measuring the compound effects on inositol monophosphate (IP1) production using the HTRF detection method. Briefly, the human 5-HT2B receptor was expressed in transfected CHO cells. The cells were suspended in a buffer containing 10 mM Hepes/NaOH (pH 7.4), 4.2 mM KCl, 146 mM NaCl, 1 mM CaCl2, 0.5 mM MgCl2, 5.5 mM glucose and 50 mM LiCl, then distributed in microplates at a density of 4100 cells/well and incubated for 30 minutes at 37° C. in the presence of buffer (basal control), test compound or reference agonist. For stimulated control measurement, separate assay wells contained 1 μM 5-HT. Following incubation, the cells were lysed and the fluorescence acceptor (fluorophen D2-labeled IP1) and fluorescence donor (anti-IP1 antibody labeled with europium cryptate) were added. After 60 minutes at room temperature, the fluorescence transfer was measured at lambda (Ex) 337 nm and lambda (Em) 620 and 665 nm using a microplate reader (Rubystar, BMG). The IP1 concentration was determined by dividing the signal measured at 665 nm by that measured at 620 nm (ratio). The results were expressed as a percent of the control response to 1 μM 5-HT. The standard reference agonist was 5-HT, which was tested in each experiment at several concentrations to generate a concentration-response curve from which its EC50 value is calculated as described above for dopamine functional assays.

[8] = PK experiments in rats: plasma compound (I) after oral dosing of prodrugs; assay type: in vivo, Han Wistar rats; conditions: Wistar rats, doses equal to 287 μg/kg of compound (I)
Method: Plasma was placed on water-ice following collection. Final storage at approximately −70° C.
Mobile phase B: Acetonitrile. […] Flow rate 0.5 mL/min.
The rats had unrestricted access to the diet.
Mobile phase B: Acetonitrile+0.2% formic acid. […] Flow rate 0.3 mL/min.
Dosing and blood sampling for compound (Ic): Han Wistar rats were supplied by Envigo, UK. […] The rats received a standard laboratory diet Teklad 2014C. The rats had unrestricted access to the diet. […] Rats were given 494 μg/kg (Ic).

[9] = test system: rat hepatocytes; conditions: WO 2010/097092; cited from earlier work
[10] = test system: human hepatocytes; conditions: WO 2010/097092; cited from earlier work

CCCc1cc2c(s1)CN[C@@H]1CCc3cc(OC(C)=O)c(OC(C)=O)cc3[C@@H]21 [adrogolide]
Oral bioavailability [1]: ~4% | Antiparkinson efficacy [2]: comparable to that of L-DOPA

CN1CCc2cccc3c2[C@H]1Cc1ccc(O)c(O)c1-3 [apomorphine]
Relationship between plasma concentration and hyperactivity ([3]; (Id) 100 μg/kg p.o. (plasma compound (I)), apomorphine 3 mg/kg s.c. (plasma apomorphine)): correlation between plasma concentrations of apomorphine and hyperactive behaviour | Locomotor activity: start of effect post-administration ([3]; (Id) 10 to 300 μg/kg p.o., apomorphine 3 mg/kg s.c., pramipexole 0.3 mg/kg s.c.): immediate

CCCN1CCC[C@@H]2Cc3c(ccc(O)c3O)C[C@H]21 [compound (I), (4aR,10aR)-1-Propyl-1,2,3,4,4a,5,10,10a-octahydro-benzo[g]quinoline-6,7-diol]
Conjugation of compound (I) in human hepatocytes [4]: conjugated in rat and human hepatocytes to sulfate and glucuronide derivatives | Efficacy in animal models relevant for Parkinson's Disease [5]: effective | Conjugation of compound (I) in rat hepatocytes [6]: conjugated in rat and human hepatocytes to sulfate and glucuronide derivatives

CCCN1CCC[C@@H]2CC3=C(CCCC3=O)C[C@H]21 [compound (Ia)]
Efficacy in animal models relevant for Parkinson's Disease [5]: effective | 5-HT2B agonist effect @ 30 μM ([7]; 30 μM, percent of control response to 1 μM 5-HT): 58% | Plasma profile of compound (I) after oral dosing of the prodrug (in words) [8]: early and high peak concentrations of compound (I)

CCCN1CCC[C@@H]2Cc3c(ccc4c3OCO4)C[C@H]21 [compound (Ib)]
Efficacy in animal models relevant for Parkinson's Disease [5]: effective | Conversion of (Ib) to compound (I) in rat hepatocytes [9]: demonstrated | 5-HT2B receptor agonism (in words) ([7]; example 6 and Table 2): agonist of the 5-HT2B receptor | Conversion of (Ib) to compound (I) in human hepatocytes [10]: demonstrated | Plasma profile of compound (I) after oral dosing of the prodrug (in words) [8]: early and high peak concentrations of compound (I)

CCCN1CCC[C@@H]2Cc3c(ccc(OC(=O)C(C)(C)C)c3OC(=O)C(C)(C)C)C[C@H]21 [compound (Ic)]
5-HT2B agonist effect @ 10 μM ([7]; 10 μM, percent of control response to 1 μM 5-HT): −5% @ 10 μM | Plasma profile of compound (I) after oral dosing of the prodrug (in words) [8]: extremely low
